ChEMBL document CHEMBL5584292, “Targeted Isolation of Antiviral Labdane Diterpenes from the Bark of Neo-uvaria foetida (Annonaceae) using LC-MS/MS-Based Molecular Networking” (J Nat Prod, 2024)
The source made the active and inactive calls. The rule behind the calls is not given here.

What was measured:
[1] = Cytotoxicity against human Huh-7 cells assessed as reduction in cell viability incubated for 48 hrs by MTS assay; assay type: toxicity, cell-based
Human coronavirus 229E [2] = test: Antiviral activity against Human coronavirus 229E expressing luciferase reporter gene infected in Huh-7 cells assessed as reduction in viral replication incubated for 24 hrs by renilla luciferase based luminometer assay; assay type: functional, organism-based; details: for IC50: Huh-7, 24 h
[3] = Cytotoxicity against African green monkey Vero E6 cells assessed as reduction in cell viability incubated for 48 hrs by MTS assay; assay type: toxicity, cell-based, Vero C1008; details: chlorocebus sabaeus
SARS-CoV-2 = test: Antiviral activity against SARS-CoV-2 infected in African green monkey Vero E6 cells assessed as reduction in viral replication incubated for 48 hrs by Alexa Fluor 488 staining based flow cytometric analysis; assay type: functional, organism-based, Severe acute respiratory syndrome coronavirus 2
Zika virus [4] = test: Antiviral activity against ZIKV expressing GFP infected in African green monkey Vero E6 cells assessed as reduction in viral replication incubated for 24 hrs by flow cytometric analysis; assay type: functional, organism-based
Huh-7 = test: Cytotoxicity against human Huh-7 cells assessed as reduction in cell viability at 3 to 400 uM incubated for 48 hrs by MTS assay; assay type: toxicity, cell-based; details: huh-7, 48 h, dose 3-400 µM
[5] = Selectivity index, ratio of CC50 for cytotoxicity against human Huh-7 cells to IC50 for antiviral activity against Human coronavirus 229E expressing luciferase reporter gene infected in Huh-7 cells; assay type: toxicity, cell-based; details: read-out: Ratio CC50/IC50
[6] = Selectivity index, ratio of CC50 for cytotoxicity against African green monkey Vero E6 cells to IC50 for antiviral activity against SARS-CoV-2 infected in African green monkey Vero E6 cells; assay type: toxicity, cell-based; details: read-out: Ratio CC50/IC50
[7] = Selectivity index, ratio of CC50 for cytotoxicity against African green monkey Vero E6 cells to IC50 for antiviral activity against ZIKV expressing GFP infected in African green monkey Vero E6 cells; assay type: toxicity, cell-based; details: read-out: Ratio CC50/IC50
[8] = Cytotoxicity against human Huh-7 cells assessed as maximum non-toxic concentration at incubated for 48 hrs by MTS assay; assay type: toxicity, cell-based; details: read-out: MNTD>90
Zika virus [9] = test: Antiviral activity against ZIKV expressing GFP infected in African green monkey Vero E6 cells assessed as reduction in viral replication preincubated for 2 hrs followed by dilution to sub-therapeutic level and measured after 24 hrs by flow cytometric analysis; assay type: functional, organism-based; details: time 26.0 hrs
Zika virus [10] = test: Antiviral activity against ZIKV expressing GFP infected in African green monkey Vero E6 cells assessed as reduction in viral replication preincubated for 2 hrs followed by compound wash out and measured after 22 hrs by flow cytometric analysis; assay type: functional, organism-based; details: time 24.0 hrs
Zika virus [11] = test: Antiviral activity against ZIKV expressing GFP infected in African green monkey Vero E6 cells assessed as reduction in viral replication preincubated for 2 hrs without compound followed by compound addition and measured after 22 hrs by flow cytometric analysis; assay type: functional, organism-based
Human coronavirus 229E [12] = test: Antiviral activity against Human coronavirus 229E expressing luciferase reporter gene infected in Huh-7 cells assessed as reduction in viral replication at 6 uM incubated for 24 hrs by renilla luciferase based luminometer assay relative to control; assay type: functional; design: scale not given: the % may be the effect or the level left
Zika virus [13] = test: Antiviral activity against ZIKV expressing GFP infected in African green monkey Vero E6 cells assessed as reduction in viral replication at 20 uM incubated for 24 hrs by flow cytometric analysis relative to control; assay type: functional; design: scale not given: the % may be the effect or the level left
[14] = Severe acute respiratory syndrome coronavirus 2, Vero C1008, 48 h, read-out: IC50
[15] = Zika virus, Vero C1008, 24 h, read-out: IC50

SMILES	CC50 at 48 h [1]	IC50 (Human coronavirus 229E [2])	CC50 at 48 h [3]	IC50 (SARS-CoV-2; vero e6)	IC50 (Zika virus [4]; vero e6)	Activity (Huh-7)	selectivity ratio [5]	IC50 (SARS-CoV-2; [14])	selectivity ratio [6]	IC50 (Zika virus [4]; [15])	selectivity ratio [7]	MNTC at 48 h [8]	Activity (Zika virus [9])	Activity (Zika virus [10])	Activity (Zika virus [11])	Activity (Human coronavirus 229E [2])	Activity (Human coronavirus 229E [12])	Activity (Zika virus [13])
CC1(C)CCC[C@@]2(C)[C@H]1CC[C@]13COC4(CC(=O)O[C@H]4O)[C@H](C[C@@H]12)O3 (stereo not given in full)	435 µM	> 100 µM	> 200 µM	Not Active	Not Active	Non-Toxic												
CC1(C)CCC[C@@]2(C)[C@H]1CC[C@]1(O)COC(O)([C@@H](O)CC(=O)O)C[C@@H]12 (stereo not given in full)	223 µM	> 100 µM	> 200 µM	Not Active	Not Active	Toxic												
CC1(C)CCC[C@@]2(C)[C@H]1CC[C@]13CO[C@@H]4OC(=O)C=C4[C@H](C[C@@H]12)O3	215 µM	58.8 µM	> 200 µM		Not Active	Toxic	3.7	93.5 µM	2.1									
CC1(C)CCC[C@@]2(C)[C@H]1CC[C@@]1(CO)O[C@H](C3=CC(=O)OC3O)C[C@@H]12 (stereo not given in full)	46.9 µM	15.8 µM	88.3 µM	Not Active		Toxic	3			31.9 µM	2.8	6 µM	inactive	Active	Active			
CCC(CC)COC(=O)[C@H](C)N[P@](=O)(OC[C@H]1O[C@@](C#N)(c2ccc3c(N)ncnn23)[C@H](O)[C@@H]1O)Oc1ccccc1 [REMDESIVIR]	90 µM	0.04 µM	> 100 µM				2250	25 µM	4									
CC1(C)CCC[C@@]2(C)[C@H]1CC[C@]1(CO)O[C@H](C3=CC(=O)OC3O)C[C@@H]12 (stereo not given in full)	172 µM	25.3 µM	200 µM			Toxic	6.8	6.3 µM	3.2	76 µM	2.6		inactive	Active	Active			
CC(=O)OC[C@@]12CC[C@H]3C(C)(C)CCC[C@]3(C)[C@H]1C[C@@H](C1=CC(=O)OC1O)O2 (stereo not given in full)	14 µM	2.3 µM	55.9 µM	Not Active		Toxic	6.2			14.9 µM	3.8	30 µM	inactive	Active	Active	Dose-Dependent Effect	80%	>90%
